Source: patent US8030500B2, “Substituted isoindoles for the treatment and/or prevention of Aβ- related pathologies” (AstraZeneca AB, priority 2008, dated 2011)
pIC50: −log10 of the molar value. Where a name gives a salt, the structure may show the parent alone.

molecular target: T1, human β-Secretase (Homo sapiens, UniProt P56817); assay: TR-FRET assay (β-secretase enzyme, sBACE-Fc); format: biochemical; conditions: soluble human β-secretase (sBACE-Fc), substrate (Europium)[…](Qsy7) 100 nM, pH4.5; read-out: IC50 in TR-FRET assay
T1 construct: soluble part of the human β-Secretase (AA 1-AA 460); Fc domain of IgG1; made in house
Experimental: The β-secretase enzyme used in the TR-FRET is prepared as follows:
The cDNA for the soluble part of the human β-Secretase (AA 1-AA 460) was cloned using the ASP2-Fc10-1-IRES-GFP-neoK mammalian expression vector. The gene was fused to the Fc domain of IgG1 (affinity tag) and stably cloned into HEK 293 cells.
The robotic systems Biomek FX and Velocity 11 were used for all liquid handling and the enzyme and substrate solutions were kept on ice until they were placed in the robotic system. Enzyme (9 μl) was added to the plate then 1 μl of compound in dimethylsulphoxide was added, mixed and pre-incubated for 10 minutes. Substrate (10 μl) was then added, mixed and the reaction proceeded for 15 minutes at room temperature. The reaction was stopped with the addition of Stop solution (7 μl, NaAcetate, pH 9). […] The dimethylsulphoxide control, instead of test compound, defined the 100% activity level and 0% activity was defined by wells lacking enzyme (replaced with reaction buffer).

T1 sequence (P56817 22-460): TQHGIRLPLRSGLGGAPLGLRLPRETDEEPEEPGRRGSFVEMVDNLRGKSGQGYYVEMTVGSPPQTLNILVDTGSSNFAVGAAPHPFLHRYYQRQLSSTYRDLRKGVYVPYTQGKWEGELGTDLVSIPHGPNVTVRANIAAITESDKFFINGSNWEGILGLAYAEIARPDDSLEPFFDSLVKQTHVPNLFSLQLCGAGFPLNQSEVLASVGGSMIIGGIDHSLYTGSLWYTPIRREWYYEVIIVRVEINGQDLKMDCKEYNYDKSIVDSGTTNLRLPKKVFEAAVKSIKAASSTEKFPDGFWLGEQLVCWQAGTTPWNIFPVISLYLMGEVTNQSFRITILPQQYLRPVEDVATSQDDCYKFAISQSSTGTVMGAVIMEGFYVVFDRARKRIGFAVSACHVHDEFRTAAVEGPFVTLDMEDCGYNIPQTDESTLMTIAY

pIC50 | SMILES
5.80 | Cc1cc(C2(c3cc(-c4cncnc4)ccc3F)N=C(N)c3c(F)cccc32)ccn1 (stereo not shown) [Example 1, 4-Fluoro-1-(2-fluoro-5-(pyrimidin-5-yl)phenyl)-1-(2-methylpyridin-4-yl)-1H-isoindol-3-amine]
5.74 | Cc1cc(C2(c3cc(-c4cncc(C#N)c4)ccc3F)N=C(N)c3c(F)cccc32)ccn1 (stereo not shown) [Example 3, 5-(3-(3-Amino-4-fluoro-1-(2-methylpyridin-4-yl)-1H-isoindol-1-yl)-4-fluorophenyl)nicotinonitrile]
5.80 | Cc1cc(C2(c3cc(-c4cncc(F)c4)ccc3F)N=C(N)c3c(F)cccc32)ccn1 (stereo not shown) [Example 4, 4-Fluoro-1-(2-fluoro-5-(5-fluoropyridin-3-yl)phenyl)-1-(2-methylpyridin-4-yl)-1H-isoindol-3-amine]
5.77 | Cc1cc(C2(c3cc(-c4cccnc4)ccc3F)N=C(N)c3c(F)cccc32)ccn1 (stereo not shown) [Example 5, 4-Fluoro-1-(2-fluoro-5-(pyridin-3-yl)phenyl)-1-(2-methylpyridin-4-yl)-1H-isoindol-3-amine]
5.96 | NC1=NC(c2ccnc(C(F)(F)F)c2)(c2cc(-c3cncnc3)ccc2F)c2cccc(F)c21 (stereo not shown) [Example 6, 4-Fluoro-1-(2-fluoro-5-(pyrimidin-5-yl)phenyl)-1-(2-(trifluoromethyl)pyridin-4-yl)-1H-isoindol-3-amine]
5.70 | N#Cc1cncc(-c2ccc(F)c(C3(c4ccnc(C(F)(F)F)c4)N=C(N)c4c(F)cccc43)c2)c1 (stereo not shown) [Example 7, 5-(3-(3-Amino-4-fluoro-1-(2-(trifluoromethyl)pyridin-4-yl)-1H-isoindol-1-yl)-4-fluorophenyl)nicotinonitrile]
4.92 | CS(=O)(=O)c1cncc(-c2ccc(F)c(C3(c4ccnc(C(F)(F)F)c4)N=C(N)c4c(F)cccc43)c2)c1 (stereo not shown) [Example 8, 4-Fluoro-1-(2-fluoro-5-(5-(methylsulfonyl)pyridin-3-yl)phenyl)-1-(2-(trifluoromethyl)pyridin-4-yl)-1H-isoindol-3-amine]
7.12 | NC1=NC(c2ccncc2)(c2cccc(-c3cccc(Cl)c3)c2)c2cccc(F)c21 (stereo not shown) [Example 9, 1-(3′-Chlorobiphenyl-3-yl)-4-fluoro-1-(pyridin-4-yl)-1H-isoindol-3-amine]
6.80 | NC1=NC(c2ccncc2)(c2cccc(-c3cncnc3)c2)c2cccc(F)c21 (stereo not shown) [Example 10, 4-Fluoro-1-(pyridin-4-yl)-1-(3-(pyrimidin-5-yl)phenyl)-1H-isoindol-3-amine]
7.02 | COc1cccc(-c2cccc(C3(c4ccncc4)N=C(N)c4c(F)cccc43)c2)c1F (stereo not shown) [Example 14, 4-Fluoro-1-(2′-fluoro-3′-methoxybiphenyl-3-yl)-1-(pyridin-4-yl)-1H-isoindol-3-amine]
6.85 | NC1=NC(c2ccncc2)(c2cccc(-c3cncc(F)c3)c2)c2cccc(F)c21 (stereo not shown) [Example 15, 4-Fluoro-1-(3-(5-fluoropyridin-3-yl)phenyl)-1-(pyridin-4-yl)-1H-isoindol-3-amine]
6.49 | NC1=NC(c2ccncc2)(c2ccc(F)c(-c3cncnc3)c2)c2cccc(F)c21 (stereo not shown) [Example 16, 4-Fluoro-1-(4-fluoro-3-(pyrimidin-5-yl)phenyl)-1-(pyridin-4-yl)-1H-isoindol-3-amine]
6.96 | COc1ccc(C2(c3cccc(-c4cncnc4)c3)N=C(N)c3c(F)cccc32)cc1 (stereo not shown) [Example 17, 4-Fluoro-1-(4-methoxyphenyl)-1-(3-(pyrimidin-5-yl)phenyl)-1H-isoindol-3-amine]
5.47 | COc1cccc(-c2cc(C3(c4cncnc4)N=C(N)c4c(F)cccc43)ccc2F)c1F (stereo not shown) [Example 18, 1-(2′,6-Difluoro-3′-methoxybiphenyl-3-yl)-4-fluoro-1-(pyrimidin-5-yl)-1H-isoindol-3-amine]
5.39 | COc1ccnc(-c2cc(C3(c4cncnc4)N=C(N)c4c(F)cccc43)ccc2F)c1 (stereo not shown) [Example 19, 4-Fluoro-1-(4-fluoro-3-(4-methoxypyridin-2-yl)phenyl)-1-(pyrimidin-5-yl)-1H-isoindol-3-amine]
6.62 | NC1=NC(c2cccc(-c3cncnc3)c2)(c2ccnc(C(F)(F)F)c2)c2cccc(F)c21 (stereo not shown) [Example 20, 4-Fluoro-1-(3-(pyrimidin-5-yl)phenyl)-1-(2-(trifluoromethyl)pyridin-4-yl)-1H-isoindol-3-amine]
5.96 | Cc1cc(C2(c3cccc(-c4cncnc4)c3)N=C(N)c3c(F)cccc32)cc(C)n1 (stereo not shown) [Example 21, 1-(2,6-Dimethylpyridin-4-yl)-4-fluoro-1-(3-(pyrimidin-5-yl)phenyl)-1H-isoindol-3-amine]

pIC50 | SMILES
6.06 | Cc1cc(C2(c3cccc(-c4cncc(C#N)c4)c3)N=C(N)c3c(F)cccc32)cc(C)n1 (stereo not shown) [Example 22, 5-(3-(3-Amino-1-(2,6-dimethylpyridin-4-yl)-4-fluoro-1H-isoindol-1 yl)phenyl)nicotinonitrile]
6.60 | N#Cc1cncc(-c2cccc(C3(c4ccnc(C(F)(F)F)c4)N=C(N)c4c(F)cccc43)c2)c1 (stereo not shown) [Example 23, 5-(3-(3-Amino-4-fluoro-1-(2-(trifluoromethyl)pyridin-4-yl)-1H-isoindol-1-yl)phenyl)nicotinonitrile]
6.55 | COc1cc(C2(c3ccc(F)c(-c4cncnc4)c3)N=C(N)c3c(F)cccc32)ccn1 (stereo not shown) [Example 24, 4-Fluoro-1-(4-fluoro-3-(pyrimidin-5-yl)phenyl)-1-(2-methoxypyridin-4-yl)-1H-isoindol-3-amine]
6.43 | N#Cc1cncc(-c2cc(C3(c4ccnc(C(F)(F)F)c4)N=C(N)c4c(F)cccc43)ccc2F)c1 (stereo not shown) [Example 25, 5-(5-(3-Amino-4-fluoro-1-(2-(trifluoromethyl)pyridin-4-yl)-1H-isoindol-1-yl)-2-fluorophenyl) nicotinonitrile trifluoroacetate]
6.34 | N#Cc1cncc(-c2cc(C3(c4ccncc4)N=C(N)c4c(F)cccc43)ccc2F)c1 (stereo not shown) [Example 26, 5-(5-(3-Amino-4-fluoro-1-(pyridin-4-yl)-1H-isoindol-1-yl)-2-fluorophenyl) nicotinonitrile]
6.40 | COc1cc(C2(c3cccc(-c4cncnc4)c3)N=C(N)c3c(F)cccc32)ccn1 (stereo not shown) [Example 27, 4-Fluoro-1-(2-methoxypyridin-4-yl)-1-(3-(pyrimidin-5-yl)phenyl)-1H-isoindol-3-amine]
6.33 | COc1cc(C2(c3cccc(-c4cncc(C#N)c4)c3)N=C(N)c3c(F)cccc32)ccn1 (stereo not shown) [Example 28, 5-(3-(3-Amino-4-fluoro-1-(2-methoxypyridin-4-yl)-1H-isoindol-1-yl)phenyl)nicotinonitrile acetate]
6.70 | COc1cc(C2(c3cccc(-c4cnccn4)c3)N=C(N)c3c(F)cccc32)ccn1 (stereo not shown) [Example 29, 4-Fluoro-1-(2-methoxypyridin-4-yl)-1-(3-(pyrazin-2-yl)phenyl)-1H-isoindol-3-amine acetate]
6.49 | NC1=NC(c2cccc(-c3cnccn3)c2)(c2ccnc(C(F)(F)F)c2)c2cccc(F)c21 (stereo not shown) [Example 30, 4-Fluoro-1-(3-(pyrazin-2-yl)phenyl)-1-(2-(trifluoromethyl)pyridin-4-yl)-1H-isoindol-3-amine]
7.05 | Cc1cc(C2(c3cccc(-c4cncnc4)c3)N=C(N)c3c(F)cccc32)cc(C(F)F)n1 (stereo not shown) [Example 32, 1-(2-(Difluoromethyl)-6-methylpyridin-4-yl)-4-fluoro-1-(3-(pyrimidin-5-yl)phenyl)-1H-isoindol-3-amine]
6.14 | Cc1cc(C2(c3ccnc(-c4cncnc4)c3)N=C(N)c3c(F)cccc32)cc(C(F)F)n1 (stereo not shown) [Example 33, 1-(2-(Difluoromethyl)-6-methylpyridin-4-yl)-4-fluoro-1-(2-(pyrimidin-5-yl)pyridin-4-yl)-1H-isoindol-3-amine]
7.09 | COc1c(C)cc(C2(c3ccnc(-c4cncnc4)c3)N=C(N)c3c(F)cccc32)cc1F (stereo not shown) [Example 34, 4-Fluoro-1-(3-fluoro-4-methoxy-5-methylphenyl)-1-(2-(pyrimidin-5-yl)pyridin-4-yl)-1H-isoindol-3-amine]
7.46 | COc1c(C)cc(C2(c3ccnc(-c4cncnc4)c3)N=C(N)c3c(F)cccc32)cc1C (stereo not shown) [Example 35, 4-Fluoro-1-(4-methoxy-3,5-dimethylphenyl)-1-(2-(pyrimidin-5-yl)pyridin-4-yl)-1H-isoindol-3-amine]
6.31 | COc1c(C)cc(C2(c3ccnc(-c4cncnc4)c3)N=C(N)c3c(F)cccc32)nc1C (stereo not shown) [Example 36, 4-Fluoro-1-(5-methoxy-4,6-dimethylpyridin-2-yl)-1-(2-(pyrimidin-5-yl)pyridin-4-yl)-1H-isoindol-3-amine]
7.06 | NC1=NC(c2cccc(-c3cnccn3)c2)(c2ccnc(C3CC3)c2)c2cccc(F)c21 (stereo not shown) [Example 37, 1-(2-Cyclopropylpyridin-4-yl)-4-fluoro-1-(3-(pyrazin-2-yl)phenyl)-1H-isoindol-3-amine trifluoroacetate]
6.37 | COc1ccnc(-c2cccc(C3(c4ccnc(OC)c4)N=C(N)c4c(F)cccc43)c2)c1 (stereo not shown) [Example 38, 4-Fluoro-1-(3-(4-methoxypyridin-2-yl)phenyl)-1-(2-methoxypyridin-4-yl)-1H-isoindol-3-amine]

same assay, conditions: stated in the text of the example; read-out: IC50 in the FRET assay

pIC50 | SMILES
4.57 | Cc1cc(C2(c3cc(-c4cncc(S(C)(=O)=O)c4)ccc3F)N=C(N)c3c(F)cccc32)ccn1 (stereo not shown) [Example 2, 4-Fluoro-1-(2-fluoro-5-(5-(methylsulfonyl)pyridin-3-yl)phenyl)-1-(2-methylpyridin-4-yl)-1H-isoindol-3-amine]
